Data taken from patent US20260240740A1, “MULTI-PHOTOPROTECTIVE COMPOUNDS AND USES THEREOF” (SKINOSIVE, priority 2022, published 2026).
Several values for one entry are separate records, joined by “and”; a condition that tells them apart may be missing. Identical values can stand only once.

Key:
[1] = Photostability after UV irradiation, absorbance spectra; assay type: physicochemical; details: for Absorbance peak, Without UV irradiation, first or only peak / Absorbance peak, Without UV irradiation, second peak / Absorbance peak, Irradiation 4000 J/dm2, first or only peak / Absorbance peak, Irradiation 4000 J/dm2, second peak: 2 mM; for Absorbance peak, Irradiation 4000 J/dm2, first or only peak / Absorbance peak, Irradiation 4000 J/dm2, second peak / Absorbance peak, Irradiation 4000 J/dm2: 2 h; for Absorbance peak, Without UV irradiation / Absorbance peak, Irradiation 2000 J/dm2 / Absorbance peak, Irradiation 4000 J/dm2 / λmax after irradiation / Effect of irradiation on UV absorbance profile: Ethanol; for Absorbance peak, Without UV irradiation / Absorbance peak, Irradiation 2000 J/dm2 / Absorbance peak, Irradiation 4000 J/dm2: 1 mM; for Absorbance peak, Irradiation 2000 J/dm2: 1 h; for λmax after irradiation / Effect of irradiation on UV absorbance profile: 2000 or 4000 J/dm2 for 1 or 2 hours
Protocol: (§1) Compound #2 (OOD), Univul A plus (DHHB), Octocrylene (OCR), and Univul A plus (DHHB)+Octocrylene (OCR) were dissolved in Ethanol at 1 mM and were irradiated at 2000 and 4000 J/dm2 for 1 h and 2 h in a 24-well plate, respectively, in 2 replicates (1 replicate for HPLC and 1 replicate for absorbance spectra).
as §1, with “#4 (OHD),” for “#2 (OOD),”
(§2) Compound #5 (BOO), Tinosorb S (BEMT), and Octocrylene (OCR) were dissolved in Dubdis at 2 mM and were irradiated at 4000 J/dm2 for 2 h in a 24-well plate, respectively, in 2 replicates (1 replicate for HPLC and 1 replicate for absorbance spectra).

[2] = UV absorbance profile: λmax in solvents, FLUOstar plate reader; assay type: physicochemical; details: for λmax double peak, first peak / λmax double peak, second peak: 50 μM; for λmax: 125 μM
Protocol: Compound #2 (OOD), Univul A plus (DHHB)+Octocrylene (OCR) were dissolved in a solvent at the same concentration (125 μM).
Compound #4 (OHD), Univul A plus (DHHB)+Octocrylene (OCR) were dissolved in a solvent at the same concentration (125 μM).
Compound #5 (BOO) and BEMT (6,6′-(6-(4-methoxyphenyl)-1,3,5-triazine-2,4-diyl)bis(3-((2-ethylhexyl)oxy)phenol)=Tinosorb S)+Octocrylene (OCR) were dissolved in a solvent at the same concentration (50 μM).
UV Absorbance Profil of Compound #6 (BOO-OM) Compound #6 (BOO-OM) and BEMT (6,6′-(6-(4-methoxyphenyl)-1,3,5-triazine-2,4-diyl)bis(3-((2-ethylhexyl)oxy)phenol)=Tinosorb S)+Octocrylene (OCR) were dissolved in a solvent at the same concentration (50 μM).

[3] = tested on: thiolated polylysine matrix; assay: Bio adhesion on thiolated polylysine matrix (UV absorbance at 310 nm after ethanol washes); details: overnight incubation in ethanol/PBS (90%/10%), washed 10 times with ethanol
Protocol: Polylysine and Polylysine enriched in SH by thiolation of primary amines using Traut's reagent were used for coating 96-well microplates. UV filters (BOO and BOO-OM) were incubated overnight under orbital agitation on the different matrices (n=3 for each condition) (uncoated wells were used as negative controls), in an ethanol/PBS (90%/10%) solution. After incubation, each microplate well was thoroughly washed 10 times with ethanol, before measuring UV absorbance. Whole UV/Visible absorbance spectrum from 220 to 1000 nm were measured in the center of each microplate well. In addition, specific UV absorbance at 310 nm was measured by matrix scan over the whole the well as a 10×10 matrix.

[4] = tested on: pig skin; assay: UV protection ex vivo on pig skin by autofluorescence quenching
Protocol: UV Protection Performance of Compound #2 (OOD) UVB and UVA protections have been assessed ex vivo on pig skin by measuring the autofluorescence quenching. OOD (Compound #2), the mix of DHHB+OCR were solubilized at the same molar concentration in Dottisol (isosorbide dimethyl ether), covered 6.25 cm2 skin square and incubated 20 min or 2 hours at room temperatures, and then 7 mm skin punches were cut and placed in a black 96-well plate. UVB and UVA protections were measured after respectively an excitation at 300 nm and 355 nm and a fluorescence emission was read at 460 nm. DMSO was added on the pig skin before the reading of the residual fluorescence.
UVB and UVA protections have been assessed ex vivo on pig skin by measuring the autofluorescence quenching. BOO (Compound #5) and the mix of BEMT+OCR were solubilized at the same molar concentration in Dottisol (isosorbide dimethyl ether), covered 6.25 cm^2 skin square and incubated 4 hours at 34° C., washed or not with 10 mL Ethanol for 5 min, and then 7 mm diameter skin punches were cut and placed in a black 96-well plate. UVB and UVA protections were measured after respectively an excitation at 300 nm and 355 nm and a fluorescence emission was read at 460 nm.
UVB protection has been assessed ex vivo on pig skin by measuring the autofluorescence quenching. BOO (Compound #5), BOO-OM (Compound #6) and the mix of BEMT+OCR were solubilized at the same molar concentration in DMDA (dimethyl capramide), covered 6.25 cm2 skin square and incubated 2 hours at 34° C., washed or not with 10 mL Ethanol for 5 min, and then 7 mm diameter skin punches were cut and placed in a black 96-well plate. UVB protection was measured after respectively an excitation at 300 nm and a fluorescence emission was read at 460 nm.

[5] = Photostability after UV irradiation, HPLC; assay type: physicochemical
Protocol: as §1
as §1, with “#4 (OHD),” for “#2 (OOD),”
as §2

[6] = Solubility in sunscreen solvents; assay type: physicochemical; details: 50° C.
Protocol: Compound #2 (OOD) and a sunscreen solvent were weighed in a Becher. The Becher was placed on a magnetic stir plate, heated up to 50° C., and the solution was vigorously mixed with a bar magnet.
Compound #4 (OHD) and a sunscreen solvent were weighed in a Becher. The Becher was placed on a magnetic stir plate, heated up to 50° C., and the solution was vigorously mixed with a bar magnet.
Compound #5 (BOO) and a sunscreen solvent were weighed in a Becher. The Becher was placed on a magnetic stir plate, heated up to 50° C., and the solution was vigorously mixed with a bar magnet.
Compound #6 (BOO-OM) and a sunscreen solvent were weighed in a Becher. The Becher was placed on a magnetic stir plate, heated up to 50° C., and the solution was vigorously mixed with a bar magnet.

[7] = pig skin autofluorescence after 4 h of incubation, Dottisol, 10 mL Ethanol 5 min, Mean +/− SD, N = 3
[8] = pig skin autofluorescence after 4 h of incubation, Dottisol, Mean +/− SD, N = 3
[9] = Cetiol HE (PEG-7 Glyceryl Cocoate)
[10] = pig skin autofluorescence after 2 h of incubation, Dottisol, Mean +/− SD, N = 3

Row | Structure (SMILES) | Absorbance peak, Without UV irradiation, first or only peak ([1]; Dubdis) [nm] | Absorbance peak, Without UV irradiation, second peak ([1]; Dubdis) [nm] | Absorbance peak, Irradiation 4000 J/dm2, first or only peak ([1]; Dubdis) [nm] | Absorbance peak, Irradiation 4000 J/dm2, second peak ([1]; Dubdis) [nm] | degradation observed by HPLC after irradiation ([5]; Dubdis) | Absorbance peak, Without UV irradiation [1] [nm] | Absorbance peak, Irradiation 2000 J/dm2 [1] [nm] | Absorbance peak, Irradiation 4000 J/dm2 [1] [nm] | degradation observed by HPLC after irradiation ([5]; Ethanol) | λmax after irradiation [1] [nm] | Effect of irradiation on UV absorbance profile ([1]; UVB and UVA range) | λmax ([2]; DMSO) [nm] | λmax ([2]; Ethanol) [nm] | soluble at ratio ([6]; Cetiol B (Dibutyl Adipate)) | purity by HPLC after irradiation ([5]; Ethanol) [%] | purity by HPLC, non-irradiated ([5]; Ethanol) [%] | also measured
1 | CCCCC(CC)COc1ccc(-c2nc(-c3ccc(OC)cc3)nc(-c3ccc(OCC(CC)CCCC)cc3OCCCCCCCCNC(=O)C(C#N)=C(c3ccccc3)c3ccccc3)n2)c(O)c1 (stereo not shown) [Compound #5, 2-cyano-N-(8-(5-((2-ethylhexyl)oxy)-2-(4-(4-((2-ethylhexyl)oxy)-2-hydroxyphenyl)-6-(4-methoxyphenyl)-1,3,5-triazin-2-yl)phenoxy)octyl)-3,3-diphenylacrylamide] | 301 | 323 | 301 | 324 | No degradation |  |  |  |  |  |  |  |  |  |  |  | Absorbance peak, Irradiation 4000 J/dm2, second peak ([1]; Dubdis, listed as BOO): 323 nm; Effect of irradiation on UV absorbance profiles and λmax ([1]; Dubdis, UVB and UVA range, 4000 J/dm2 for 2 hours): did not modify; λmax double peak, first peak ([2]; Dottisol): 301 nm; λmax double peak, second peak ([2]; Dottisol): 324 nm; λmax double peak, first peak ([2]; Dubdis): 301 nm; λmax double peak, second peak ([2]; Dubdis): 323 nm; λmax absorbance shift in UVB versus the mix of BEMT-OCR ([2]; same molar concentration, Dubdis, same shift in Dottisol): 10 nm; bio adhesion, UV absorbance at 310 nm [3]: did not show a bio adhesion; UVA and UVB protections of the pig skin compared to the mix OCR+BEMT ([4]; 4 h incubation, Dottisol): similar; UVB Fluorescence (Ex300/Em460) No Wash ([4]; pig skin autofluorescence after 2 h of incubation, DMDA (dimethyl capramide), Mean +/− SD, N = 3): 42968 +/− 3131; UVB Fluorescence (Ex300/Em460) EtOH Wash ([4]; pig skin autofluorescence after 2 h of incubation, DMDA, 10 mL Ethanol 5 min, Mean +/− SD, N = 3): 152417 +/− 17275; UVA Fluorescence (Ex355/Em460) EtOH Wash [4, 7]: 217235 +/− 4204; UVB Fluorescence (Ex300/Em460) EtOH Wash [4, 7]: 205205 +/− 3116; UVA Fluorescence (Ex355/Em460) No Wash [4, 8]: 49672 +/− 9882; UVB Fluorescence (Ex300/Em460) No Wash [4, 8]: 49009 +/− 9100; UVB protection after ethanol wash compared to the initial protection before washing ([4]; pig skin, 2 h incubation, DMDA): decreased three times; purity by HPLC after irradiation ([5]; Dubdis): 98.13%; purity by HPLC, non-irradiated ([5]; Dubdis): 98.88%
2 | CCCCCCOC(=O)c1ccccc1C(=O)c1ccc(N(CC)CC)cc1O [DHHB, diethylamino hydroxybenzoyl hexyl benzoate, reference compound] |  |  |  |  |  | 357 | 357 | 357 | No degradation |  |  |  |  |  |  |  | 
3 | CCCCC(CC)COc1ccc(-c2nc(-c3ccc(OC)cc3)nc(-c3ccc(OCC(CC)CCCC)cc3O)n2)c(O)c1 (stereo not shown) [BEMT, 6,6′-(6-(4-methoxyphenyl)-1,3,5-triazine-2,4-diyl)bis(3-((2-ethylhexyl)oxy)phenol), reference compound] | 310 | 351 | 310 | 351 | No degradation |  |  |  |  |  |  |  |  |  |  |  | 
4 | CCN(CC)c1ccc(C(=O)c2ccccc2C(=O)NCCCCCCOC(=O)C(C#N)=C(c2ccccc2)c2ccccc2)c(O)c1 [Compound #4, 6-[[2-[4-(diethylamino)-2-hydroxy-benzoyl]benzoyl]amino]hexyl 2-cyano-3,3-diphenyl-prop-2-enoate] |  |  |  |  |  | 358 | 357 | 357 | No degradation | 357 | did not modify | 356 | 356 | ⅓ | 97.84 | 98.13 | soluble at ratio ([6]; Dimethyl capramide (Spectrasolv DMDA)): 1/1
5 | CCCCC(CC)COC(=O)C(C#N)=C(c1ccccc1)c1ccccc1 (stereo not shown) [OCR, 2-ethylhexyl 2 cyano-3,3-diphenylacrylate, reference compound] | 305 |  | 309 |  | No degradation | 304 | 304 | 304 | No degradation |  |  |  |  |  |  |  | 
6 | CCN(CC)c1ccc(C(=O)c2ccccc2C(=O)NCCCCCCCCOC(=O)C(C#N)=C(c2ccccc2)c2ccccc2)c(O)c1 [Compound #2, 8-[[2-[4-(diethylamino)-2-hydroxy-benzoyl]benzoyl]amino]octyl 2-cyano-3,3-diphenyl-prop-2-enoate] |  |  |  |  |  | 357 | 357 | 357 | No degradation | 357 | did not modify | 356 | 356 | 1/1 | 98.80 | 99.17 | λmax ([2]; Cetiol B (Dibutyl Adipate)): 355 nm; λmax [2, 9]: 355 nm; λmax ([2]; Dubdis (diisopropyl sebacate), listed as OOD): 355 nm and 356 nm; soluble at ratio [6, 9]: ⅕; soluble at ratio ([6]; Dubdis (Diisopropyl sebacate)): 1/1; UVA and UVB protections of the pig skin compared to the mix OCR+DHHB ([4]; 2 h incubation, Dottisol): similar; UVA Fluorescence (Ex355/Em460) [4, 10]: 2881 +/− 617; UVB Fluorescence (Ex300/Em460) [4, 10]: 15248 +/− 3227
